Assay: Solubility of monomers and polymers in water and organic solvents
Assay type: physicochemical
From the text: The DM trgel monomers as prepared by the methods exemplified in Examples 1-5 above were converted to polymers by the anionic polymerization reaction as illustrated in Reaction Scheme A and the physical properties of homopolymers of differing monomers are presented in Table 1. With reference to Table 1 it should be noted that all of the resulting polymers have very low poly dispersity (Mw/Mn). […] All trgel monomers can be copolymerized randomly or in blocks. Copolymerization of water-soluble and water insoluble monomers results in polymers with controlled solubility in water, including gel forming polymers. Water-soluble polymers are particularly useful in biological applications such as surface protection from non-specific adsorption. The data also illustrates that the glass transition temperature (Tg) of polymers with alkyl substituents decreases as the alkyl chain length increases. […] The DM trgel polymers wherein R=2-methoxyethyl or R=2-(2-methoxyethoxyethyl) show lower critical solution temperature (LCST) behavior.

Solubility in hexane (hexane)	SMILES	Solubility in water
soluble	CCCCCCCCCCO[C@H]1[C@@H]2O[C@@H]2[C@@H]2OC[C@H]1O2 [DDM, 1,6:2,3-dianhydro-4-O-decyl-β-D-mannopyranose]	
	COCCOC1C2COC(O2)C2OC12 [MEDM, 1,6:2,3-dianhydro-4-O-(2-methoxyethyl)-β-D-mannopyranose]	soluble
	COCCOCCOCCOC1C2COC(O2)C2OC12 [Monomer T, 1,6:2,3-dianhydro-4-O-(2-(2-(2-metoxyethoxy)ethoxy)ethyl)-β-D-mannopyranose]	soluble
